Active and inactive are the calls of the source. No cut-off for these calls is given here.

2 compounds from ChEMBL document CHEMBL4814055, “Design, synthesis and molecular modeling studies of novel mesalamine linked coumarin for treatment of inflammatory bowel disease” (Bioorg Med Chem Lett, 2021) can be followed below.

Data set [1] relates to Rattus norvegicus. Put plainly: Anti-ulcerative colitis activity in acetic acid-induced ulcerative colitis Wistar rat model assessed as normal mucosa without cryptic loss in colon at 400 mg/kg, po administrated for 14 days by microscopic analysis. It counts as functional, organism-based. The settings on record: time 14.0 day.
Data set [2] in a line: Toxicity in albino rat assessed as lethality at 2000 mg/kg. The settings on record: in vivo. It counts as organism-based.
The nature of data set [3]: Toxicity in albino rat assessed as toxic signs at 300 mg/kg observed for 14 days. Conditions: in vivo, 336 h, time 14 day. It counts as organism-based.
The nature of data set [4]: Toxicity in albino rat assessed as toxic symptoms at 300 mg/kg observed for 14 days. It is filed as organism-based. Conditions: in vivo, 336 h, time 14 day.
Data set [5] can be described thus: Toxicity in albino rat assessed as behavioral changes at 300 mg/kg observed for 14 days. It counts as organism-based. Conditions: in vivo, 336 h, time 14 day.
The test system of data set [6] is Rattus norvegicus. Description: Anti-ulcerative colitis activity in acetic acid-induced ulcerative colitis Wistar rat model assessed as change in stool uniformity at 400 mg/kg, po administrated for 14 days. Conditions: time 14.0 day. It counts as functional, organism-based.
The subject of data set [7] is Rattus norvegicus. Put plainly: Anti-ulcerative colitis activity in acetic acid-induced ulcerative colitis Wistar rat model assessed as restoration of normal stool consistency at 400 mg/kg, po administrated for 14 days and measured during initial 4-5 days of treatment. It is filed as functional, organism-based. Conditions: time 4-5 day.
Data set [8] has as its system Rattus norvegicus. Put plainly: Anti-ulcerative colitis activity in acetic acid-induced ulcerative colitis Wistar rat model assessed as decrease in bleeding at 400 mg/kg, po administrated for 14 days and measured during initial 4-5 days of treatment. It is filed as functional, organism-based. The settings on record: time 4-5 day.
Data set [9] deals with Rattus norvegicus. Put plainly: Anti-ulcerative colitis activity in acetic acid-induced ulcerative colitis Wistar rat model assessed as reduction in blood content in feces without change in feces colour at 400 mg/kg, po administrated for 14 days. It counts as functional, organism-based. The settings on record: time 14.0 day.
The subject of data set [10] is Rattus norvegicus. Description: Anti-ulcerative colitis activity in acetic acid-induced ulcerative colitis Wistar rat model assessed as body weight recovery measured as body weight gain at 400 mg/kg, po administrated for 14 days relative to control. It is filed as functional. Conditions: time 14 day.
The test system of data set [11] is Rattus norvegicus. Description: Anti-ulcerative colitis activity in acetic acid-induced ulcerative colitis Wistar rat model assessed as reduction in acetic acid-induced lipid peroxidation by measuring reduction in MDA level in colon at 400 mg/kg, po administrated for 14 days. It is filed as functional, organism-based. Conditions: time 14.0 day.
Data set [12] relates to Rattus norvegicus. Put plainly: Anti-ulcerative colitis activity in acetic acid-induced ulcerative colitis Wistar rat model assessed as reduction in acetic acid-induced oxidative stress by measuring increase in SOD level in colon at 400 mg/kg, po administrated for 14 days by UV spectrophotometric analysis. It counts as functional, organism-based. The settings on record: time 14.0 day.

For data set [13], the system named is Rattus norvegicus. Put plainly: Anti-ulcerative colitis activity in acetic acid-induced ulcerative colitis Wistar rat model assessed as reduction in diarrhea at 400 mg/kg, po administrated for 14 days and measured during initial 5 to 6 days of treatment. Conditions: time 5-6 day. It counts as functional, organism-based.
Data set [14] relates to Rattus norvegicus. Description: Anti-ulcerative colitis activity in acetic acid-induced ulcerative colitis Wistar rat model assessed as reduction in onset of diarrhea at 400 mg/kg, po administrated for 14 days and measured during initial 8 to 9 days of treatment. It counts as functional, organism-based. The settings on record: time 8-9 day.
In data set [15] the test system is Rattus norvegicus. Description: Anti-ulcerative colitis activity in acetic acid-induced Wistar rat ulcerative colitis model assessed as reduction in infiltration of inflammatory cells in colon at 400 mg/kg, po administrated for 14 days by microscopic analysis. Conditions: time 14.0 day. It counts as functional, organism-based.
Data set [16] deals with Rattus norvegicus. Description: Anti-ulcerative colitis activity in acetic acid-induced ulcerative colitis Wistar rat model assessed as reduction in damage of mucosa in colon at 400 mg/kg, po administrated for 14 days by microscopic analysis. It is filed as functional, organism-based. The settings on record: time 14.0 day.
Data set [17] has as its system Rattus norvegicus. Put plainly: Anti-ulcerative colitis activity in acetic acid-induced ulcerative colitis Wistar rat model assessed as reduction in sub-mucosal edema in colon at 400 mg/kg, po administrated for 14 days by microscopic analysis. Conditions: time 14.0 day. It counts as functional, organism-based.
In data set [18] the test system is Rattus norvegicus. Description: Anti-ulcerative colitis activity in acetic acid-induced ulcerative colitis Wistar rat model assessed as mild deformation of mucosal layer with disruption of epithelium in colon at 400 mg/kg, po administrated for 14 days by microscopic analysis. It is filed as functional, organism-based. Conditions: time 14.0 day.
Data set [19] deals with Rattus norvegicus. Description: Anti-ulcerative colitis activity in acetic acid-induced ulcerative colitis Wistar rat model assessed as reduction in blood content in feces with parrot green to green dotted colour at 400 mg/kg,po administrated for 14 days. It is filed as functional, organism-based. Conditions: time 14.0 day.

On to `Cc1cc(=O)oc2c(/N=N/c3ccc(O)c(C(=O)O)c3)c(O)ccc12`, for which the outcome with Rattus norvegicus [1], in the data set with Rattus norvegicus [6], with Rattus norvegicus [7], in the data set with Rattus norvegicus [8], in the data set on Rattus norvegicus [9] and with Rattus norvegicus [11] was Active. Moreover, the result in the data set on Rattus norvegicus [12], in the data set with Rattus norvegicus [13] and in the data set with Rattus norvegicus [14] was Active. For the same compound, the Activity result in data set [2] is on record as “Toxic”; in data set [3], “Non-Toxic”; in [4], “Non-Toxic”; in data set [5] it was “Non-Toxic”; in the data set on Rattus norvegicus [10], 92%.

As for `Nc1ccc(O)c(C(=O)O)c1` [MESALAMINE], the result in the data set on Rattus norvegicus [15], in the data set with Rattus norvegicus [6], in the data set on Rattus norvegicus [11], in the data set with Rattus norvegicus [12], with Rattus norvegicus [16] and with Rattus norvegicus [17] was Active. For the same compound, the result with Rattus norvegicus [13], in the data set with Rattus norvegicus [14] and in the data set with Rattus norvegicus [19] was Active. Moreover, in the data set with Rattus norvegicus [10], the Activity was determined as 88%. Besides, the outcome with Rattus norvegicus [18] was inactive.
